Experimental data reported in US20110166191A1, “3-(2-amino-ethyl)-5-(3-cyclohexyl-propylidene)-thiazolidine-2,4-dione and its derivatives as multiple signaling pathway inhibitors and for the treatment of cancer” (priority 2010, published 2011).

Tests used:
Experiment in all cases: In vitro kinase screening
Assay type in all cases: biochemical
[1] = target: T1, PRAK (Homo sapiens, UniProt Q8IW41); settings: 10 μM concentration
T1 construct: Caliper Life Sciences
Method: (§1) Formula II [3-(2-aminoethyl)-5-(3-cyclohexylpropylidene)thiazolidine-2,4-dione] was screened against a panel of kinases at 10 μM concentration by Caliper Life Sciences according to their established protocol.

[2] = target: T2, KDR (Homo sapiens, UniProt P35968); settings: 10 μM concentration
T2 construct: Caliper Life Sciences
Method: as §1

[3] = target: T3, PI3Ka (Homo sapiens, UniProt P42336); settings: 10 μM concentration
T3 construct: Caliper Life Sciences
Method: as §1

[4] = target: T4, AKT1 (Homo sapiens, UniProt P31749); settings: AKT1, 10 μM concentration
T4 construct: Caliper Life Sciences (screening service)
Method: as §1

[5] = target: T5, FGFR1 (Homo sapiens, UniProt P11362); settings: FGFR1, 10 μM concentration
T5 construct: Caliper Life Sciences (screening service)
Method: as §1

[6] = target: T6, MEK2 (Homo sapiens, UniProt P36507); settings: MEK2, 10 μM concentration
T6 construct: Caliper Life Sciences
Method: as §1

[7] = target: T7, PKCz (Homo sapiens, UniProt Q05513); settings: 10 μM concentration
T7 construct: Caliper Life Sciences
Method: as §1

[8] = target: T8, MEK1 (Homo sapiens, UniProt Q02750); settings: MEK1, 10 μM concentration
T8 construct: Caliper Life Sciences
Method: as §1

[9] = target: T9, Erk2 (Homo sapiens, UniProt P28482); settings: Erk2, 10 μM concentration
T9 construct: Caliper Life Sciences (screening service)
Method: as §1

[10] = target: T10, SRC (Homo sapiens, UniProt P12931); settings: 10 μM concentration
T10 construct: purchased Caliper Life Sciences
Method: as §1

[11] = target: T11, RSK1 (Homo sapiens, UniProt Q15418); settings: RSK1, 10 μM concentration
T11 construct: Caliper Life Sciences
Method: as §1

[12] = target: T12, LYN (Homo sapiens, UniProt P07948); settings: 10 μM concentration
T12 construct: Caliper Life Sciences
Method: as §1

[13] = target: T13, PKD2 (Homo sapiens, UniProt Q9BZL6); settings: PKD2, 10 μM concentration
T13 construct: Caliper Life Sciences
Method: as §1

[14] = target: T14, GSK3b (Homo sapiens, UniProt P49841); settings: 10 μM concentration
T14 construct: Caliper Life Sciences (screening service)
Method: as §1

[15] = target: T15, IGF1R (Homo sapiens, UniProt P08069); settings: 10 μM concentration
T15 construct: Caliper Life Sciences (screening service)
Method: as §1

[16] = target: T16, PAK2 (Homo sapiens, UniProt Q13177); settings: PAK2, 10 μM concentration
T16 construct: Caliper Life Sciences
Method: as §1

[17] = target: T17, DYRK1a (Homo sapiens, UniProt Q13627); settings: 10 μM concentration
T17 construct: Caliper Life Sciences (screening service)
Method: as §1

[18] = target: T18, MSK1 (Homo sapiens, UniProt O75582); settings: MSK1, 10 μM concentration
T18 construct: Caliper Life Sciences
Method: as §1

[19] = target: T19, c-TAK1 (Homo sapiens, UniProt P27448); settings: c-TAK1, 10 μM concentration
T19 construct: Caliper Life Sciences (screening service)
Method: as §1

[20] = target: T20, Ck1d (Homo sapiens, UniProt P48730); settings: 10 μM concentration
T20 construct: Caliper Life Sciences (screening service)
Method: as §1

[21] = target: T21, PDK1 (Homo sapiens, UniProt O15530); settings: PDK1, 10 μM concentration
T21 construct: Caliper Life Sciences
Method: as §1

[22] = target: T22, HGK (Homo sapiens, UniProt O95819); settings: 10 μM concentration
T22 construct: Caliper Life Sciences (screening service)
Method: as §1

[23] = target: T23, c-Raf (Homo sapiens, UniProt P04049); settings: 10 μM concentration
T23 construct: Caliper Life Sciences (screening service)
Method: as §1

[24] = target: T24, Erk1 (Homo sapiens, UniProt P27361); settings: Erk1, 10 μM concentration
T24 construct: Caliper Life Sciences (screening service)
Method: as §1

[25] = target: T25, CHK1 (Homo sapiens, UniProt O14757); settings: CHK1, 10 μM concentration
T25 construct: Caliper Life Sciences (screening service)
Method: as §1

[26] = target: T26, AKT2 (Homo sapiens, UniProt P31751); settings: AKT2, 10 μM concentration
T26 construct: Caliper Life Sciences (screening service)
Method: as §1

[27] = target: T27, ROCK2 (Homo sapiens, UniProt O75116); settings: ROCK2, 10 μM concentration
T27 construct: Caliper Life Sciences
Method: as §1

[28] = target: T28, INSR (Homo sapiens, UniProt P06213); settings: 10 μM concentration
T28 construct: Caliper Life Sciences (screening service)
Method: as §1

[29] = target: T29, ABL (Homo sapiens, UniProt P00519); settings: 10 μM concentration
T29 construct: Caliper Life Sciences (screening service)
Method: as §1

[30] = target: T30, MET (Homo sapiens, UniProt P08581); settings: 10 μM concentration
T30 construct: Caliper Life Sciences
Method: as §1

[31] = target: T31, PKGa (Homo sapiens, UniProt Q13976); settings: 10 μM concentration
T31 construct: Caliper Life Sciences
Method: as §1

[32] = target: T32, AurA (Homo sapiens, UniProt O14965); settings: 10 μM concentration
T32 construct: Caliper Life Sciences (screening service)
Method: as §1

[33] = tested on: AMPK; settings: 10 μM concentration
Method: as §1

[34] = target: T33, MAPKAPK2 (Homo sapiens, UniProt P49137); settings: MAPKAPK2, 10 μM concentration
T33 construct: Caliper Life Sciences
Method: as §1

[35] = target: T34, LCK (Homo sapiens, UniProt P06239); settings: 10 μM concentration
T34 construct: Caliper Life Sciences
Method: as §1

[36] = target: T35, IRAK4 (Homo sapiens, UniProt Q9NWZ3); settings: IRAK4, 10 μM concentration
T35 construct: Caliper Life Sciences (screening service)
Method: as §1

[37] = target: T36, SYK (Homo sapiens, UniProt P43405); settings: 10 μM concentration
T36 construct: purchased Caliper Life Sciences
Method: as §1

T26 sequence (P31751 whole entry): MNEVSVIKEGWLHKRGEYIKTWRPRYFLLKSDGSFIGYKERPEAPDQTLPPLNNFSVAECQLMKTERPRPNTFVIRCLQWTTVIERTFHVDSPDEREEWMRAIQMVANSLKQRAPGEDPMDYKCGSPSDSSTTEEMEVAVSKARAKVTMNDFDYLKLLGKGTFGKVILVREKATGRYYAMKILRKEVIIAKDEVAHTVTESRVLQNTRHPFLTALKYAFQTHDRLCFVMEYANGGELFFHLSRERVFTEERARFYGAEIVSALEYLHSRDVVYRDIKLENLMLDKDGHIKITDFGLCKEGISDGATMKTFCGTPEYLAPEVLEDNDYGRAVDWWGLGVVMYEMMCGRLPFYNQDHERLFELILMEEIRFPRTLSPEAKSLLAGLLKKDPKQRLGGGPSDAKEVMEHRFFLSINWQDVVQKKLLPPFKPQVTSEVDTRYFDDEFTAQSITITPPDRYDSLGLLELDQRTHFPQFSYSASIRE
T9 sequence (P28482 whole entry): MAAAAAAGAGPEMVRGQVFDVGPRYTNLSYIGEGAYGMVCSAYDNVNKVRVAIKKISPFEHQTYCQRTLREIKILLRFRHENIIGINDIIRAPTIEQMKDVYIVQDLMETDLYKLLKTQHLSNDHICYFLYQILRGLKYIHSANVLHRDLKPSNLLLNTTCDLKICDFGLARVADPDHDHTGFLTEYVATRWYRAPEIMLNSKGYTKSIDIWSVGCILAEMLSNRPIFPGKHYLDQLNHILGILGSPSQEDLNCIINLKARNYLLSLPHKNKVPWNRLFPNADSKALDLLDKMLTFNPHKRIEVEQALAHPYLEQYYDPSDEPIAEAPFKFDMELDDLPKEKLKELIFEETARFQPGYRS
T28 sequence (P06213 28-1382): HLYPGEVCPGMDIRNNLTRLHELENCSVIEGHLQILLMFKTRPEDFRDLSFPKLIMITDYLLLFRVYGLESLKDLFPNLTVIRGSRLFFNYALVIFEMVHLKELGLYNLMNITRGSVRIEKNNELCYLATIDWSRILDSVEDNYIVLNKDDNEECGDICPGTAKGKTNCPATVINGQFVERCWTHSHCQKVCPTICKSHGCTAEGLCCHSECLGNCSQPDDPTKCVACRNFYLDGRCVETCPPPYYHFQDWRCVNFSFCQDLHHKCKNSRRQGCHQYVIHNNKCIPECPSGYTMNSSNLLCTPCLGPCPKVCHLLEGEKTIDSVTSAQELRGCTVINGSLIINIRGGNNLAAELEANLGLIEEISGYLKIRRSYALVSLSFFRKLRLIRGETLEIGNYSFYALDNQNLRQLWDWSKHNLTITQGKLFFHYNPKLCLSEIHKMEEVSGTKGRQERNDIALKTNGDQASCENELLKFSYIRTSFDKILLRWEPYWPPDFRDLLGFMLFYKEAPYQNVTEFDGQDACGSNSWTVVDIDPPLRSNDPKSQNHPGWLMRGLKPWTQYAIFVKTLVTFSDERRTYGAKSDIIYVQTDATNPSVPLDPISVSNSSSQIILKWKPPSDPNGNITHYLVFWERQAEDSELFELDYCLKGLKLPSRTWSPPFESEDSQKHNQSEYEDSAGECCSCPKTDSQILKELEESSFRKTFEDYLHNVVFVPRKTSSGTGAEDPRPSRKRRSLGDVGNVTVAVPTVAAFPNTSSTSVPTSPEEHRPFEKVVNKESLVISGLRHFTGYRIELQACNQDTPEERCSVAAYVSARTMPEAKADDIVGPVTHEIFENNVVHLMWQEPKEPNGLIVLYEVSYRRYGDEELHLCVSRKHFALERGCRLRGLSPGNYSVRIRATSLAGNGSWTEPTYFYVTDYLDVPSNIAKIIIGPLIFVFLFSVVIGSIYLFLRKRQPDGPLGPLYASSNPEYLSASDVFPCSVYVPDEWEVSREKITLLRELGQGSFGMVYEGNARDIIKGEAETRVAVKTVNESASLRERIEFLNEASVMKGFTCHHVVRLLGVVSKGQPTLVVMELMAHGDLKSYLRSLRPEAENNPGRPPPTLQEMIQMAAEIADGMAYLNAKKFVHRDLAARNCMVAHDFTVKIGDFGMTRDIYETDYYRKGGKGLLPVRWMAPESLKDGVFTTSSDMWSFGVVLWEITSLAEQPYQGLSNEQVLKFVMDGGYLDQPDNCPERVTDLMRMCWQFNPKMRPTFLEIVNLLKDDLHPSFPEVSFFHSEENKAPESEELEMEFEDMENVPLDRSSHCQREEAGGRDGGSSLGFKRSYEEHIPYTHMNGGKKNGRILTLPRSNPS
T22 sequence (O95819 whole entry): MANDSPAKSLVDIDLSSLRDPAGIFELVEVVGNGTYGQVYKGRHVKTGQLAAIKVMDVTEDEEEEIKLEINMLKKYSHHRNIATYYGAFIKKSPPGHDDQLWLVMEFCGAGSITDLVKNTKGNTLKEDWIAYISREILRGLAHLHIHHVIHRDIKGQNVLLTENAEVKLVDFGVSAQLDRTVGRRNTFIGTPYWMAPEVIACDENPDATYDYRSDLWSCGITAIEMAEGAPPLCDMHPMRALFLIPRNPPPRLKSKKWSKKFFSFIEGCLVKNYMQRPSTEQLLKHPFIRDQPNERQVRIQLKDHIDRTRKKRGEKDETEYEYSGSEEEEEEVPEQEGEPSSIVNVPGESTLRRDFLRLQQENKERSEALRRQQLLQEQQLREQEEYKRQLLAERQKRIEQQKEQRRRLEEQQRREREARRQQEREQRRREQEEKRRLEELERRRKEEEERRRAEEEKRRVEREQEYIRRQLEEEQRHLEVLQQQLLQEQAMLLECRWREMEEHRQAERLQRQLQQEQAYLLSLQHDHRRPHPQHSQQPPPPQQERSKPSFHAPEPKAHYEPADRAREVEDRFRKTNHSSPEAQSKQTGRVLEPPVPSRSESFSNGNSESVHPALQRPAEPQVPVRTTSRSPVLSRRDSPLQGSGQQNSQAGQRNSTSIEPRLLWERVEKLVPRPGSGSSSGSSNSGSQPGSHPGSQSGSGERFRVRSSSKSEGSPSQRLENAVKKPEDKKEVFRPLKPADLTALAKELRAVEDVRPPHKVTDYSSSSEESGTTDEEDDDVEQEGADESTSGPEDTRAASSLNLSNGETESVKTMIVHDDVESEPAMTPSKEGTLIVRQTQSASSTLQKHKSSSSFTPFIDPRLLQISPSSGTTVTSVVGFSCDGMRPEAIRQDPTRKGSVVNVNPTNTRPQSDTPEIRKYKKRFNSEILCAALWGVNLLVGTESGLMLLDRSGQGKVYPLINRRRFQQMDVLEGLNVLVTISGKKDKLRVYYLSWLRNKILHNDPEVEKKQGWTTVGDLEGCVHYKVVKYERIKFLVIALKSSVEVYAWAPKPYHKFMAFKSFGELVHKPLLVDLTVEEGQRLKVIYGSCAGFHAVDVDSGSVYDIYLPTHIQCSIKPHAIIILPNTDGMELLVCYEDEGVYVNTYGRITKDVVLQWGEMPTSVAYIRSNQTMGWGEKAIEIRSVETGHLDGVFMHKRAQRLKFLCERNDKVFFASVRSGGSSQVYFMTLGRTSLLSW
T5 sequence (P11362 22-822): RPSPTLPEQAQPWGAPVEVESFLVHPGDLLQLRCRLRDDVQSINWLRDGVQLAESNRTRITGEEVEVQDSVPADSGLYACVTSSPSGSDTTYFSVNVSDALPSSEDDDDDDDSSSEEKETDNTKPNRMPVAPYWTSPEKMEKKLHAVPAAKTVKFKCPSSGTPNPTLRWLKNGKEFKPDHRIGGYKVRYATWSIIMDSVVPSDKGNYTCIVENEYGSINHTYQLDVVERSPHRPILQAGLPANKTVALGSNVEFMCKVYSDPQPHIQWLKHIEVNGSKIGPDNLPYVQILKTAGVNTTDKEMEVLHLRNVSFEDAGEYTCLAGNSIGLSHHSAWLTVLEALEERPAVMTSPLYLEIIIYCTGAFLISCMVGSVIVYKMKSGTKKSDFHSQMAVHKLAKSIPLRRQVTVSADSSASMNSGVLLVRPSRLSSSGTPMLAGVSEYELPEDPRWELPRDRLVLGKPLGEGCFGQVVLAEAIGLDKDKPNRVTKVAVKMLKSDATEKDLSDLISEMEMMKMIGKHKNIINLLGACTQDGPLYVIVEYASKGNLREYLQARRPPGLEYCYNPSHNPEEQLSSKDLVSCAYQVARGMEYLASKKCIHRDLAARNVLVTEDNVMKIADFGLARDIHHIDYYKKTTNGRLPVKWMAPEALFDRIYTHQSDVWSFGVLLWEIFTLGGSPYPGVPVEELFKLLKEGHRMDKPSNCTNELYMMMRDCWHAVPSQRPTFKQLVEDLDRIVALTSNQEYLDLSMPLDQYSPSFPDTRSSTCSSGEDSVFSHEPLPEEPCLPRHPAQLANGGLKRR
T10 sequence (P12931 whole entry, species assumed): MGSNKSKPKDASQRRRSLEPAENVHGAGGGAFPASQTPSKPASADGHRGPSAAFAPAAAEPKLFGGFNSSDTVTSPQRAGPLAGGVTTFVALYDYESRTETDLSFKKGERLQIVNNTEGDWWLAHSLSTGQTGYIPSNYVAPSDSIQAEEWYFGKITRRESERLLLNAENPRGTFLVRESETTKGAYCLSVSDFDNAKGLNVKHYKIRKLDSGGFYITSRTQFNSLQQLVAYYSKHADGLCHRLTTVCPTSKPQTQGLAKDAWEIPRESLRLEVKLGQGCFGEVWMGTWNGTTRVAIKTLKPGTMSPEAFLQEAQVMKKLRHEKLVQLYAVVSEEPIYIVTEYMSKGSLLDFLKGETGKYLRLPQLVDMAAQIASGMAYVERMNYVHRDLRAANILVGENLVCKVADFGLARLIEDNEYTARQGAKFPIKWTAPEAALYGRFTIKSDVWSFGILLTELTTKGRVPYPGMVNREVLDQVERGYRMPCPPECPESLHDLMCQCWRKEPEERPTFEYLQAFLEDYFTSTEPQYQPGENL

`NCCN1C(=O)S/C(=C\CCC2CCCCC2)C1=O` [Example 4, 3-(2-aminoethyl)-5-(3-cyclohexylpropylidene)thiazolidine-2,4-dione] was tested, and the inhibition at 10 µM [1] was 4%, the inhibition at 10 µM [2] was -28% and the inhibition at 10 µM [3] was 45%. For the same molecule, the inhibition at 10 µM [4] was 3%, the inhibition at 10 µM [5] was 3% and the inhibition at 10 µM [6] was 27%. The inhibition at 10 µM [7] was -8%, the inhibition at 10 µM [8] was 69% and the inhibition at 10 µM [9] was 11%. For the same molecule, the inhibition at 10 µM [10] was 2%, the inhibition at 10 µM [11] was 2% and the inhibition at 10 µM [12] was 0%. It also gave an inhibition at 10 µM [13] of 0%, an inhibition at 10 µM [14] of 0% and an inhibition at 10 µM [15] of -1%. The inhibition at 10 µM [16] was 10%, the inhibition at 10 µM [17] was -5% and the inhibition at 10 µM [18] was 6%. The inhibition at 10 µM [19] was 6%, the inhibition at 10 µM [20] was -5% and the inhibition at 10 µM [21] was -2%. It also gave an inhibition at 10 µM [22] of -1%, an inhibition at 10 µM [23] of -1% and an inhibition at 10 µM [24] of 21%. For the same molecule, the inhibition at 10 µM [25] was 11%, the inhibition at 10 µM [26] was 8% and the inhibition at 10 µM [27] was -1%. It also gave an inhibition at 10 µM [28] of -2%, an inhibition at 10 µM [29] of 6% and an inhibition at 10 µM [30] of -1%. For the same molecule, the inhibition at 10 µM [31] was -2%, the inhibition at 10 µM [32] was -4% and the “% Inhibition” value [33] was 76%. For the same molecule, the inhibition at 10 µM [34] was 3%, the inhibition at 10 µM [35] was 4% and the inhibition at 10 µM [36] was -1%. It also gave an inhibition at 10 µM [37] of 9%.
